Experimental data published in US7087373B2, “Methods for determining plasma free drug concentration by direct measurement of binding affinity of protease inhibitors to plasma proteins” (priority 2001, dated 2006).
pIC50: −log10 of the molar value. Like-named read-outs stand apart in the source and are kept apart here.

What was measured:
HIV [1] = conditions: cited from earlier work
[2] = test system: AAG (human α1-acid glycoprotein); assay: Isothermal titration calorimetry (ITC) of PI binding to AAG; conditions: for binding to AAG (titration profile): 80 μM PI into 12 μM, 1.45 mL of AAG; for Ka to AAG: ITC, Table 2; for Ka: binding to AAG, 37° C., 20 mM phosphate buffer, pH 7.4, average of duplicate experiments
Experimental: Briefly, the isothermal titration calorimetry (ITC) measurements are designed to obtain primarily the enthalpy of each complex formation and their stoichiometries. The heats of each reaction are determined by integration of the peaks observed. After the contribution from the heat of dilution of each injection is subtracted, the heat is plotted against the molar ratio of PIs to AAG. The binding constant (Ka), enthalpy of binding (ΔH^0), and stoichiometry (N) of the formation of complex are determined by fitting the binding isotherm against the binding equation using an independent binding model. Data analysis may be carried out with, for example, MicroCal ORIGN software, usually provided with the instrument.
Binding experiments were run using Isothermal Titration Calorimetry (ITC) to measure bound and unbound protease inhibitors.
Sample preparation: Solutions of AAG and its variants for ITC experiments were made up in 20 mM […] buffer, pH 7.4. All compounds were prepared as stock solution of 20 mM or 25 mM in DMSO and thereafter diluted to desired concentration in the same buffer. For all ITC experiments, the percentage of DMSO is below 1%.
ITC Experiments: The isothermal titration measurements of the binding of various PIs to AAG can be typically carried out at 37° C. using a VP-ITC titration calorimeter (MicroCal, Northampton, Mass.). The instrument was electrically calibrated by means of a standard electric pulse as recommended by the manufacturer. […] A 300 μL syringe was used for the titrant, mixing was effected by stirring this syringe at 300 rpm during equilibration and experiment. Typically after a preliminary 2 μL injection, 25 injections of 10 μL each were performed with a 250s interval between injections in a single titration. The reference cell of the calorimeter filled with water, acts as a thermal reference to the sample cell. […] All solutions were degassed before titrations to reduce the noise. The buffer contained 20 mM sodium phosphate, pH 7.4.
The area of each peak was integrated and corrected for the PI heat of dilution, which was estimated by a separate experiment by injecting the PI into the buffer. By fitting the titration curve with a nonlinear least-squares method, the enthalpy change ΔH^0, and the binding constant Ka of PI binding to AAG can be estimated with the assumption of an independent binding site model.
The values provided are the average of duplicate experiments. […] The ΔS^0 function was calculated from the standard thermodynamic relation ΔG^0=ΔH^0−TΔS^0.

HIV [3] = assay: Antiviral assay in the absence of AAG (Table 2); format: cell-based; conditions: Human immunodeficiency virus 1
Description: In table below, a data table with the binding affinity of 3 PI's to AAG (Ka), their free drug concentrations, calculated IC50s, and calculated efficacy were extracted from the ITC results and compared to IC50s from an antiviral assay in the absence of AAG.

AAG = assay: Calculation of IC50 in presence of AAG, free drug concentration and efficacy from ITC Ka; set-up: species or system human; conditions: for Free drug Concentration: calculated from ITC results; for pIC50: read-out: Predicted IC50 @ 1 mg/mL AAG, calculated from Ka and IC50 without AAG
Description: The quantification of the concentration of protease inhibitor in free form maybe performed by direct measurement of binding affinity Kd using isothermal titration calorimetry; and calculating the concentration of protease inhibitor in free form using the formula:
[formula] where Pt and Lt, are total protein and drug concentrations, and Kd is the equilibrium dissociation constant obtained in step (iii).
[formula] where PL is the protein-bound concentration of PIs, L0 and P0 are the total concentration of PIs and plasma protein, Kα and n are the binding constants and number of binding sites, respectively.
The quantification of the antiviral activity or EC50 value of a protease inhibitor in the presence of at least one plasma protein may be performed by direct measurement of binding affinity Ka using isothermal titration calorimetry; and calculating the antiviral activity or EC50 value of the protease inhibitor using the formula: […]
The quantification of the in vivo efficacy of a protease inhibitor in human plasma may be performed by direct measurement of binding affinity Ka using isothermal titration calorimetry; calculating the concentration of protease inhibitor in free form using the formulas described above; and calculating the in vivo efficacy of the protease inhibitor in human plasma using the formula: […]

HIV [4] = assay: Cell-based anti-HIV assay (tetrazolium-based, Pauwels et al.) in the absence of AAG and in the presence of 1 mg/mL AAG; conditions: change in experimental EC50, absence of AAG vs presence of 1 mg/mL AAG
Experimental: The values provided are the average of duplicate experiments. […] The standard free energies (ΔG^0) were obtained from the equation ΔG^0=−RT1nKa, in which the Ka is the binding constant at 37° C. The ΔS^0 function was calculated from the standard thermodynamic relation ΔG^0=ΔH^0−TΔS^0. […] Methods, 1988, 20(4), 309–21.

HIV [5] = conditions: in vivo, Fischl et al.; extensive protein binding; cited from earlier work
[6] = antiviral assay in the absence of AAG, read-out: IC50

CC(C)[C@H](NC(=O)N(C)Cc1ccccn1)C(=O)N[C@@H](Cc1ccccc1)[C@H](O)[C@H](O)[C@H](Cc1ccccc1)NC(=O)[C@@H](NC(=O)N(C)Cc1ccccn1)C(C)C [A77003]
antiviral efficacy as the concentration of AAG was increased (HIV [1]; in vitro, Bilello et al.): decreased

CC(C)CN(C[C@@H](O)[C@H](Cc1ccccc1)NC(=O)O[C@H]1CCOC1)S(=O)(=O)c1ccc(N)cc1 [APV, amprenavir]
binding to AAG (titration profile) [2]: binds to AAG accompanied with an exothermic heat effect

CC(C)CN(C[C@@H](O)[C@H](Cc1ccccc1)NC(=O)OC1CO[C@H]2OCC[C@@H]12)S(=O)(=O)c1ccc(N)cc1 (some centres unmarked) [Compound number 1]
pIC50 (HIV [3]): 8.52
Ka to AAG [2]: 1.92E+06
Free drug Concentration (AAG): 1300 nM
pIC50 (AAG): 7.13

CC(C)CN(C[C@@H](O)[C@H](Cc1ccccc1)NC(=O)O[C@H]1CO[C@H]2OCC[C@H]21)S(=O)(=O)c1ccc2c(c1)OCO2 [Compound number 2]
pIC50 (HIV [3]; [6]): 9.10
Ka to AAG [2]: 2.19E+06
Free drug Concentration (AAG): 1190 nM
pIC50 (AAG): 7.64

COc1ccc(S(=O)(=O)N(CC(C)C)C[C@@H](O)[C@H](Cc2ccccc2)NC(=O)OC2CO[C@H]3OCC[C@@H]23)cc1 (some centres unmarked) [Compound number 3]
pIC50 (HIV [3]; [6]): 9.30
Ka to AAG [2]: 1.24E+06
Free drug Concentration (AAG): 1710 nM
pIC50 (AAG): 8.08

CC(C)(C)NC(=O)[C@@H]1CN(Cc2cccnc2)CCN1C[C@@H](O)C[C@@H](Cc1ccccc1)C(=O)N[C@H]1c2ccccc2C[C@H]1O [IDV, indinavir]
Fold Inc. EC50 (HIV [4]): 1.0
binding to AAG (titration profile) [2]: does not bind to AAG
Ka [2]: No binding

Cc1cccc(C)c1OCC(=O)N[C@@H](Cc1ccccc1)[C@@H](O)C[C@H](Cc1ccccc1)NC(=O)[C@H](C(C)C)N1CCCNC1=O [LPV, lopinavir]
Fold Inc. EC50 (HIV [4]): 37.1
Ka [2]: 5.77 ± 0.72 10^6M^−1

Cc1c(O)cccc1C(=O)N[C@@H](CSc1ccccc1)[C@H](O)CN1C[C@H]2CCCC[C@H]2C[C@H]1C(=O)NC(C)(C)C [NFV, nelfinavir]
Fold Inc. EC50 (HIV [4]): 22.9
Ka [2]: 2.35 ± 0.42 10^6M^−1

CC(C)c1nc(CN(C)C(=O)N[C@H](C(=O)N[C@@H](Cc2ccccc2)C[C@H](O)[C@H](Cc2ccccc2)NC(=O)OCc2cncs2)C(C)C)cs1 [RTV, ritonavir]
Fold Inc. EC50 (HIV [4]): 18.9
Ka [2]: 1.55 ± 0.49 10^6M^−1

CC(C)CN(C[C@@H](O)[C@H](Cc1ccccc1)NC(=O)[C@H](CC(N)=O)NC(=O)c1ccc2ccccc2n1)C(=O)NC(C)(C)C [SC-52151, telinavir]
Fold Inc. EC50 (HIV [4]): 29.2
Ka [2]: 2.38 ± 0.60 10^6M^−1
clinical efficacy (HIV [5]): lack of clinical efficacy
antiretroviral activity in vitro (HIV [1]; Fischl et al.): potent

CC(C)(C)NC(=O)[C@@H]1C[C@@H]2CCCC[C@@H]2CN1C[C@@H](O)[C@H](Cc1ccccc1)NC(=O)[C@H](CC(N)=O)NC(=O)c1ccc2ccccc2n1 [SQV, saquinavir]
Fold Inc. EC50 (HIV [4]): 5.6
Ka [2]: 0.34 ± 0.12 10^6M^−1
